In patent US20140213567A1, “TAZOBACTAM ARGININE ANTIBIOTIC COMPOSITIONS” (Cubist Pharmaceuticals, Inc., priority 2012, published 2014) one finds hygroscopicity data, which are given here for one compound.

This data set can be described thus: Hygroscopicity of solid form. Format: physicochemical. Particulars: relative to amorphous tazobactam arginine and amorphous tazobactam sodium.

As to `C[C@]1(Cn2ccnn2)[C@H](C(=O)O)N2C(=O)CC2S1(=O)=O` (stereo partly shown) [Tazobactam arginine polymorph Ia, Tazobactam Arginine], the hygroscopicity entry is given as “low hygroscopicity”.
